Measured values taken from patent publication US5006448A, “Photographic material and process” (Eastman Kodak Company, priority 1989, dated 1991).

Experiment: Imbibition test of intrinsic inhibition strength of free inhibitors
Conditions: inhibitor prebath 5×10^-5 M, pH 10 carbonate buffer plus 0.1% dimethylformamide, 38° C., 2 min
Source text: Development inhibitors are generally released imagewise from an incorporated DIR compound during processing of the exposed photographic element. To evaluate the intrinsic inhibition strength of such inhibitors, independent of DIR release, an imbibition test is used. This involves imbibing an exposed film strip with a solution containing a given concentration of the free inhibitor to be tested. Nitrogen burst agitation of the imbibing solution improves the repeatability and effectiveness of inhibitor incorporation. The measured strength obtained by this test serves as an important guide in selecting inhibitors for desired photographic acutance improvements.
Film samples for imbibition testing of inhibitors were prepared having the following schematic layer structure and using a silver bromoiodide emulsion containing 6.4 mole % iodide (numerical values denote coating coverages in mg/m^2 and the silver halide values are for equivalent weights of silver):
Film strips cut from this coated element were exposed through a graduated density test object and a Kodak Wratten 99 (green) filter. Before development a strip was immersed at 38° C. under nitrogen agitation in each of the separate prebaths containing a test inhibitor at 5×10^-5 M concentration in a pH 10 carbonate buffer plus 0.1% dimethylformamide. As controls, each test set included a check strip which was immersed in a prebath containing no inhibitor and strips immersed in prebaths containing the comparison inhibitors phenylmercaptotetrazole (CI-1) and ethylmercaptotetrazole (CI-2). Photographic processing was carried out at 38° C. in the following steps:
The density of each test strip at this same exposure was noted and the inhibition strength number (I.S. No.) calculated using the equation: [formula]
Larger I.S. numbers for given inhibitors indicate stronger inhibition resulting in less dye density formed. Table IV lists these […], as well as calculated log P values, for a number of inhibitors released by compounds of the invention and for comparison inhibitors CI-1 through CI-8. It can be seen that, at equivalent partition coefficient (Log P) values, the inhibitors useful in the invention show higher inhibition strength than the controls. Alternatively, at approximately equal inhibition strength, inhibitors of the invention have lower partition coefficients.

Compared with CCCCCOc1ccc(-c2nn[nH]n2)cc1 [CI-6, reference compound], CCCCSCCCOc1ccc(-c2nn[nH]n2)cc1 [Compound I-26] is higher in “Inhibition Strength No.” value: 16 for the first, 67 for the second.

Going from CCn1nnnc1S [CI-2, reference compound] to Sc1nnnn1-c1ccccc1 [CI-1, phenylmercaptotetrazole, reference compound], the “Inhibition Strength No.” value rises from 15 to 80.

Compared with CCCCCCCCCSc1nn[nH]n1 [CI-4, reference compound], CCCCCCCCCSCc1nn[nH]n1 [Compound I-5] is higher in “Inhibition Strength No.” value: 43 for the first, 95 for the second.

Going from CCCCCCN(CCCCCC)c1nn[nH]n1 [CI-5, reference compound] to CCCCSCCN(CCSCCCC)c1nn[nH]n1 [Compound I-37], the “Inhibition Strength No.” value rises from 52 to 66.

Going from CCCCCCCSCCCc1nn[nH]n1 [Compound I-22] to CCCCCCSCCCc1nn[nH]n1 [Compound I-23], the “Inhibition Strength No.” value falls from 94 to 77.

Compared with CCCSCCOC(=O)c1ccc2[nH]nnc2c1 [Compound I-137], CCCSc1ccc2[nH]nnc2c1 [Compound I-138] is lower in “Inhibition Strength No.” value: 86 for the first, 69 for the second.

Going from CCSCCSCCCc1nn[nH]n1 [Compound I-134] to CCCSCCCc1nn[nH]n1 [Compound I-24], the “Inhibition Strength No.” value falls from 77 to 20.

First: CSCCSc1ccc2[nH]nnc2c1 [Compound I-139, 6'-(2-methylthioethylthio)benzotriazole]
Second: CCOc1cc2nn[nH]c2cc1OCC [CI-8, reference compound]
The “Inhibition Strength No.” value of the first is higher: 88 for the first, 35 for the second.

Compared with CCCCSCCCCCCc1nn[nH]n1 [Compound I-51], CCCCCCCCSCCc1nn[nH]n1 [Compound I-21] is higher in “Inhibition Strength No.” value: 83 for the first, 95 for the second.

Going from CCCSCCSCc1ccccc1-c1nn[nH]n1 [Compound I-136] to CCCCCCCCc1nn[nH]n1 [CI-3, reference compound], the “Inhibition Strength No.” value falls from 84 to 18.

In the case of O=C(Oc1ccccc1)c1ccc2[nH]nnc2c1 [CI-7, reference compound], the “Inhibition Strength No.” value is reported as 40.
